From patent US9381196B2, “Compounds, pharmaceutical compositions and methods of use of hydroxamic acid derivatives” (THE TRANSLATIONAL GENOMICS RESEARCH INSTITUTE, priority 2008, dated 2016)
Where two headings read alike, the source gives them in different places.

Columns and labels:
Skov-3 cells = experiment: CellTiter-Blue cell viability assay, SKOV3 cell line; format: cell-based; conditions: cell growth inhibition
Description: Cell viability in the presence of varying concentrations of the above listed aspects of the disclosed compound at different time points was used to assess cytotoxicity and the effect of the disclosed compound on cell proliferation.

MiaPaca cells = experiment: CellTiter-Blue cell viability assay, MiaPaCa cell line; format: cell-based, human; conditions: cell growth inhibition
Description: (§6) Where X is the logarithm of concentration and Y is the response. Y starts at the Bottom and goes to Top with a sigmoid shape.

mdamb231 cells = experiment: CellTiter-Blue cell viability assay, mdamb231 cell line; format: cell-based; conditions: cell growth inhibition
Description: as §6

A2780 cell line = conditions: 72 hours treatment
Description: (§1) Cell viability was measured by the CellTiter-Blue® cell viability assay Promega (Madison, Wis.). This procedure measures the conversion of the indicator dye (resazurin) to resorufin, an indicator of cell viability. Following treatment, growth media was removed and cells were incubated with 20 μl of CellTiter-Blue® Reagent and growth media for 1-4 hours at 37° C. Fluorescence values were measured at 535/590 nm using a Beckman-Coulter DTX-880 microplate reader.
(§2) Cells were grown to 70% confluency, trypsinized, counted, and seeded in 96 well flat-bottom plates at a final concentration of 2.5×10^3-5×10^3 cells/well (Day 0). Cells were allowed to incubate in growth media for 24 hours to allow for maximum adhesion. Treatment with the test agents or standard agents began on Day 1 and continued for 72 hours. At the 72 hour timepoint, treatment including media was removed. Viable cell numbers are quantified by the CellTiter-Blue® cell viability assay as described above. Experiments were repeated at least twice with the same concentrations to determine growth inhibitory activity.
(§3) Single agent and combination studies, data from each experiment was collected and expressed as % Cell Growth using the following calculation: % Cell Growth=(ftest/fvehicle)×100
(§4) Where ftest is the fluorescence of the tested sample, and fvehicle is the fluorescence of the vehicle in which the drug is dissolved. Dose response graphs and IC50 values were generated using Prism 4 software (GraphPad) using the following equation: […]
(§5) Where X is the logarithm of concentration and Y is the response.

H23 cell line = conditions: 72 hours treatment
Description: as §1, §2, §3, §4, §5

H295R cell line = conditions: 72 hours treatment
Description: as §1, §2, §3, §4, §5

MV522 cell line = conditions: 72 hours treatment
Description: as §1, §2, §3, §4, §5

PANC-1 cell line = conditions: 72 hours treatment
Description: as §1, §2, §3, §4, §5

VCAP cell line = conditions: 72 hours treatment
Description: as §1, §2, §3, §4, §5

[1] = system: MIA PaCa-2 human pancreas cells xenograft; conditions: MIA PaCa-2 xenograft in nude mice
Description: In vivo efficacy of the disclosed compound was tested through a human pancreas tumor xenograft model. Female Ncr nude mice were inoculated with 1×10^7 MIA PaCa-2 human pancreas cells suspended in a mixture of 50% Matrigel and 50% tissue culture media in a total volume of […] When the tumors reached a mean weight of 157 mg, the mice were separated into four groups of 7-8 mice per group and treated. One group was treated with vehicle only. A second group was treated with Compound ID #15 at 50 mg/kg. A third group was treated with Compound ID #15 at 100 mg/kg and a fourth group was treated with Gemcitabine at 80 mg/kg. Vehicle and Compound ID #15 were administered by mouth while Gemcitabine was administered via an intraperitoneal injection. Body weights and tumor size data were collected twice weekly. Tumor width and length were measured in millimeters and converted to tumor weight (in milligrams) using the formula (width^2×Length/2)=tumor weight (mg.)

[2] = Homo sapiens, SK-OV-3, 72 hours treatment
[3] = Homo sapiens, MIA PaCa-2, 72 hours treatment
[4] = Homo sapiens, MDA-MB-231, 72 hours treatment

| Molecule | IC50 (Skov-3 cells; [2]) | IC50 (MiaPaca cells; [3]) | further results |
| --- | --- | --- | --- |
| 7-(5-bromo-1H-benzimidazol-2-yl)-N-hydroxy heptanamide [Compound ID 15] | – | – | IC50 (Skov-3 cells; 72 hours treatment): 270 nM; IC50 (MiaPaca cells; 72 hours treatment): 820 nM; IC50 (mdamb231 cells; 72 hours treatment): 890 nM; IC50 (A2780 cell line): 1900 nM; IC50 (H23 cell line): 560 nM; IC50 (H295R cell line): 180 nM; IC50 (MV522 cell line): 2200 nM; IC50 (PANC-1 cell line): 130 nM; IC50 (VCAP cell line): 2400 nM; slowing growth of the xenografts ([1]; 50 mg/kg by mouth): no more effective than the vehicle control; slowing growth of the xenografts ([1]; 100 mg/kg by mouth, comparator gemcitabine 80 mg/kg intraperitoneal): about as effective as gemcitabine |
| O=C(CCCCCCc1nc2ccccc2[nH]1)NO [Compound ID 14, 7-(1H-benzo[d]imidazol-2-yl)-N-hydroxyheptanamide] | 2700 nM | 1900 nM | – |
| O=C(CCCCCc1nc2ccccc2[nH]1)NO [Compound ID 16, 6-(1H-benzo[d]imidazol-2-yl)-N-hydroxyhexanamide] | 11000 nM | – | – |
| COc1ccc2[nH]c(CCCCCCC(=O)NO)nc2c1 [Compound ID 17, N-hydroxy-7-(5-methoxy-1H-benzo[d]imidazol-2-yl)heptanamide] | > 10000 nM | – | – |
| Cn1c(CCCCCCC(=O)NO)nc2ccccc21 [Compound ID 19, N-hydroxy-7-(1-methyl-1H-benzo[d]imidazol-2-yl) heptanamide] | – | – | IC50 (Skov-3 cells; 72 hours treatment): 3000 nM |
| O=C(CCCCCCc1nc2ccncc2[nH]1)NO [Compound ID 23, N-hydroxy-7-(3H-imidazo[4,5-c]pyridin-2-yl)heptanamide] | > 10000 nM | > 10000 nM | – |
| O=C(CCCCCCc1nc2ccccc2n1C1CC1)NO [Compound ID 24, 7-(1-cyclopropyl-1H-benzo[d]imidazol-2-yl)-N-hydroxyheptanamide] | 9500 nM | 4000 nM | – |
| O=C(CCCCCCc1nc2ccccc2n1C1CCCC1)NO [Compound ID 25, 7-(1-cyclopentyl-1H-benzo[d]imidazol-2-yl)-N-hydroxyheptanamide] | 4800 nM | 2300 nM | – |
| O=C(CCCCCCc1nc2c(Cl)cccc2[nH]1)NO [Compound ID 26, 7-(4-chloro-1H-benzo[d]imidazol-2-yl)-N-hydroxyheptanamide] | 10200 nM | 8500 nM | – |
| O=C(CCCCCCc1nc2ccccc2n1-c1ccccc1)NO [Compound ID 27, N-hydroxy-7-(1-phenyl-1H-benzo[d]imidazol-2-yl)heptanamide] | > 10000 nM | > 10000 nM | – |
| O=C(CCCCCCc1nc2cc(-c3cncnc3)ccc2[nH]1)NO [Compound ID 28, N-hydroxy-7-(5-(pyrimidin-5-yl)-1H-benzo[d]imidazol-2-yl)heptanamide] | 2600 nM | – | IC50 (mdamb231 cells; [4]): 540 nM |
| CN(C)c1ccc(-c2ccc3[nH]c(CCCCCCC(=O)NO)nc3c2)cc1 [Compound ID 31, 7-(5-(4-(dimethylamino)phenyl)-1H-benzo[d]imidazol-2-yl)-N-hydroxyheptanamide] | 6600 nM | – | – |
| O=C(CCCCCCc1nc2cc(-c3ccccc3F)ccc2[nH]1)NO [Compound ID 32, 7-(5-(2-fluorophenyl)-1H-benzo[d]imidazol-2-yl)-N-hydroxyheptanamide] | 7400 nM | – | – |
| COc1ccc(-c2ccc3[nH]c(CCCCCCC(=O)NO)nc3c2)cc1 [Compound ID 33, N-hydroxy-7-(5-(4-methoxyphenyl)-1H-benzo[d]imidazol-2-yl)heptanamide] | 3200 nM | – | – |

Now from value to molecule, other results behind:

| IC50 (Skov-3 cells; [2]) | IC50 (MiaPaca cells; [3]) | Molecule | further results |
| --- | --- | --- | --- |
| 98 nM | 400 nM | O=C(CCCCCCc1nc2cc(-c3ccccc3)ccc2[nH]1)NO [Compound ID 18, N-hydroxy-7-(5-phenyl-1H-benzo[d]imidazol-2-yl)heptanamide] | – |
| 1200 nM | – | CN(C)c1ccc2[nH]c(CCCCCCC(=O)NO)nc2c1 [Compound ID 20, 7-(5-(dimethylamino)-1H-benzo[d]imidazol-2-yl)-N-hydroxyheptanamide] | – |
| 1900 nM | – | O=C(CCCCCCc1nc2cc(F)ccc2[nH]1)NO [Compound ID 21, 7-(5-fluoro-1H-benzo[d]imidazol-2-yl)-N-hydroxyheptanamide] | – |
| 320 nM | – | O=C(CCCCCCc1nc2cc(Cl)ccc2[nH]1)NO [Compound ID 22, 7-(5-chloro-1H-benzo[d]imidazol-2-yl)-N-hydroxyheptanamide] | – |
| 1200 nM | – | O=C(CCCCCCc1nc2cc(-c3ccc(F)cc3)ccc2[nH]1)NO [Compound ID 29, 7-(5-(4-fluorophenyl)-1H-benzo[d]imidazol-2-yl)-N-hydroxyheptanamide] | IC50 (mdamb231 cells; [4]): 210 nM |
| 1500 nM | – | O=C(CCCCCCc1nc2cc(-c3cccc(F)c3)ccc2[nH]1)NO [Compound ID 30, 7-(5-(3-fluorophenyl)-1H-benzo[d]imidazol-2-yl)-N-hydroxyheptanamide] | IC50 (mdamb231 cells; [4]): 330 nM |
